The target of this test is Aldo-keto reductase family 1 member B1 (Homo sapiens, UniProt P15121). Briefly: Inhibition of aldose reductase.

We go through 3 compounds from ChEMBL document CHEMBL1157025, “Evaluation of aldose reductase inhibition and docking studies of 6'-nitro and 6',6''-dinitrorosmarinic acids” (Eur J Med Chem, 2010).

One may read the IC50 as the midpoint of a concentration-inhibition curve. In the case of `O=C(/C=C/c1ccc(O)c(O)c1)O[C@H](Cc1cc(O)c(O)cc1[N+](=O)[O-])C(=O)O`, the IC50 (read-out: IC50) came to 1.84 µM.

On to `O=C(/C=C/c1cc(O)c(O)cc1[N+](=O)[O-])O[C@H](Cc1cc(O)c(O)cc1[N+](=O)[O-])C(=O)O`, for which the IC50 (read-out: IC50) is 0.741 µM. Take `O=C(/C=C/c1ccc(O)c(O)c1)O[C@H](Cc1ccc(O)c(O)c1)C(=O)O` [ROSMARINIC ACID]: the IC50 was 3.91 µM.
